{"source": "patent US20230255943A1", "about": "“MMP-9 AND MMP-12 INHIBITION FOR TREATING SPINAL CORD INJURY OR RELATED INJURY TO NEUROLOGICAL TISSUE” (The University of Birmingham, priority 2020, published 2023)", "tested_on": "SCI-induced oedema", "test": "Example 3: spinal cord water content with aquaporin-4 relocalisation inhibitors", "settings": "in vivo", "experimental": "The lesion site+3 mm either side for mice and the lesion site+5 mm either side for the rat DC model were dissected out and the water content of the spinal cord (as a measure of oedema) was determined at 3 days after DC and CC SCI, as described previously (S. Li, C. H. Tator, Effects of MK801 on evoked potentials, spinal cord blood flow and cord edema in acute spinal cord injury in rats. Spinal Cord 37, 820-832 (1999)). Spinal cords containing the lesion site were weighed on aluminium foil, dried at 105° C. for 24 hr, and re-weighed. The percent water content was calculated as: water content (%)=[(wet weight-dry weight)/wet weight]×100%.\nUsing similar techniques to those described in Example 1, the water content in the spinal cord as a measure of injury-induced oedema was determined for various agents and aquaporin-4 inhibitors, namely TFP, PKAi, PKCi and TGN-020—see FIG. 21."}
{"smiles": "O=C(Nc1nncs1)c1cccnc1", "note": "[TGN-020, N-1,3,4-Thiadiazol-2-yl-3-pyridinecarboxamide]", "values": [{"measurement": "SCI-induced oedema, water content (FIG. 21)", "result": "suppress SCI-induced oedema"}]}
